Measurements as given in patent US11439707B2, “Hypocrellin derivative substituted both in a peri-position and in 2-position by amino, preparation method, and application thereof” (priority 2017, dated 2022).

Key:
[1] = absorption spectrum (maximum absorption wavelength, molar extinction coefficient); type: physicochemical
[2] = singlet oxygen efficiency test, reference rose bengal; type: physicochemical

SMILES | maximum absorption wavelength [1] [nm] | molar extinction coefficient [1] | singlet oxygen yield [2] [%]
COC(=O)C1CCC(CNc2c(NCC3CCC(C(=O)OC)CC3)c3c(=O)cc(OC)c4c5c(OC)cc(=O)c6c(O)c(OC)c7c(c(c2C=C(C)C7C(C)=O)c34)c65)CC1 (stereo not drawn) [HB-13a-AcE] | 625 | 27,000 M^−1cm^−1 | 25
COc1c2c3c4c(c(NCCCC(=O)NCCCC[N+](C)(C)C)c(=O)c5c(O)cc(OC)c(c6c(OC)cc(NCCCC(=O)NCCCC[N+](C)(C)C)c(c1=O)c63)c54)C=C(C)C2 [HC-8d-NH—C4-N^+] | 624 | 30,500 M^−1cm^−1 | 33
COc1c(NCc2cccc[n+]2CCCC(=O)O)c2c(=O)cc(OC)c3c4c(OC)cc(=O)c5c(O)c(NCc6cccc[n+]6CCCC(=O)O)c6c(c(c1C(C(C)=O)C(C)=C6)c23)c54 (stereo not drawn) [HB-38b-N—COOH] | 620 | 21,500 M^−1cm^−1 | 18
COc1c2c3c4c(c(NC5CCC(O)CC5)c(=O)c5c(O)cc(OC)c(c6c(OC)cc(NC7CCC(O)CC7)c(c1=O)c63)c54)C=C(C)C2C(C)=O (stereo not drawn) [HB-17d] | 624 | 25,000 M^−1cm^−1 | 22
COc1c(NCCOCCO)c2c(=O)cc(OC)c3c4c(OC)cc(=O)c5c(O)c(NCCOCCO)c6c(c(c1CC(C)=C6)c23)c54 [HC-1b] | 624 | 27,000 M^−1cm^−1 | 33
COc1c(O)c2c(=O)cc(OC)c3c4c(OC)cc(=O)c5c(NC6CCC(O)CC6)c(NC6CCC(O)CC6)c6c(c(c1C(C(C)=O)C(C)=C6)c23)c54 (stereo not drawn) [HB-17a] | 617 | 25,000 M^−1cm^−1 | 22
COCCOCCOCCOCCOCCOCCOCCOCCOCCOCCOCCOCCOC(=O)C1CCC(Nc2c3c4c5c(c(OC)c(=O)c6c(O)cc(OC)c(c7c(OC)cc(NC8CCC(C(=O)OCCOCCOCCOCCOCCOCCOCCOCCOCCOCCOCCOCCOC)C8)c(c2=O)c74)c65)C(C(C)=O)C(C)=C3)C1 (stereo not drawn) [HB-19c-PEG12] | 636 | 33,500 M^−1cm^−1 | 38
COCCOCCNC(=O)CCCNc1c(NCCCC(=O)NCCOCCOC)c2c(=O)cc(OC)c3c4c(OC)cc(=O)c5c(O)c(OC)c6c(c(c1C=C(C)C6)c23)c54 [HC-8a-NH-PEG1] | 621 | 30,500 M^−1cm^−1 | 30
COc1c(O)c2c(=O)cc(OC)c3c4c(OC)cc(=O)c5c(NC(CC(N)=O)C(=O)O)c(NC(CC(N)=O)C(=O)O)c6c(c(c1C(C(C)=O)C(C)=C6)c23)c54 (stereo not drawn) [HB-26a] | 614 | 20,500 M^−1cm^−1 | 20
COCCOCCOCCOCCOCCOCCOC(=O)CCCNc1c(O)c2c(=O)cc(OC)c3c4c(OC)cc(=O)c5c(NCCCC(=O)OCCOCCOCCOCCOCCOCCOC)c(OC)c6c(c(c1C=C(C)C6)c23)c54 [HC-8b-PEG6] | 624 | 30,000 M^−1cm^−1 | 32
COCCOCCOCCOCCOCCOCCOCCC(=O)N1CCC(CNc2c3c4c5c(c(OC)c(=O)c6c(O)cc(OC)c(c7c(OC)c(Br)c(NCC8CCN(C(=O)CCOCCOCCOCCOCCOCCOCCOC)CC8)c(c2=O)c47)c65)C(C(C)=O)C(C)=C3)CC1 (stereo not drawn) [HB-31c-Br-PEG6] | 631 | 33,000 M^−1cm^−1 | 38
COc1c(O)c2c(=O)cc(OC)c3c4c(OC)cc(=O)c5c(NC(CCC(=O)O)C(=O)O)c(NC(CCC(=O)O)C(=O)O)c6c(c(c1C(C(C)=O)C(C)=C6)c23)c54 (stereo not drawn) [HB-28a] | 621 | 20,500 M^−1cm^−1 | 18
